Patent US20240218022A1, “ANTI-VISTA MACROCYCLIC PEPTIDES AND COMPOSITIONS” (BRISTOL-MYERS SQUIBB COMPANY, priority 2022, published 2024)
Positions of bridges follow the written chain, without caps; N, C: chain ends. Non-standard residues stand in square brackets, D forms with d. Residues, ends and D or L forms follow the SMILES beside them. 2Nal = N[C@@H](Cc1ccc2ccccc2c1)C(=O)O; Ahp(2) = CCCCC[C@H](N)C(=O)O; NHexGly = CCCCCCNCC(=O)O; Nle = CCCC[C@H](N)C(=O)O; Orn = NCCC[C@H](N)C(=O)O; Nva = CCC[C@H](N)C(=O)O; Dap = NC[C@H](N)C(=O)O

Biological target: T1, mouse VISTA (mVISTA) (Mus musculus, UniProt Q9D659)
T1 construct: expressed in transfected cells; host or cells: Human embryonic kidney 293T cells
T1 sequence (Q9D659 33-308): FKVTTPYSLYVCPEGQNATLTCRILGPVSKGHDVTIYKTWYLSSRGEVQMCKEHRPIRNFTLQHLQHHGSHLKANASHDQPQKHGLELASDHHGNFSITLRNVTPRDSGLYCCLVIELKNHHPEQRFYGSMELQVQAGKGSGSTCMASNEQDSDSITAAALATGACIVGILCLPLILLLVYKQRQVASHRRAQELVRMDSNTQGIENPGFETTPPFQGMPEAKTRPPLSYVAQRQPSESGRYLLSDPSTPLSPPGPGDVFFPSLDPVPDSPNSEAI
Assay: Cell-Based Binding High-Content Assay For mVISTA (HC CBA mVISTA)
Conditions: 293T cells expressing mouse VISTA; competition with biotinylated peptide (2 nM); read-out: HC CBA mVISTA IC50
Summary of the method: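 Read-out: Alexa 647–streptavidin signal imaged on fixed, Hoechst-stained mVISTA-293T cells, with IC50 taken from a four-parameter logistic curve. Compounds competed with 2 nM biotinylated peptide for 30 min at room temperature, tested under both no-wash and wash (1 h compound, media exchange, 1 h) formats.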

SMILES	IC50
CCCCCCN1CC(=O)N[C@@H](Cc2ccc(O)cc2)C(=O)N[C@@H](CC(C)C)C(=O)NCC(=O)N[C@@H](CCCNC(=N)N)C(=O)N[C@@H](CCCCN)C(=O)N[C@@H](CCCCC)C(=O)N2CCC[C@H]2C(=O)N[C@@H](C(C)C)C(=O)N[C@@H](CO)C(=O)N[C@H](C(=O)NCC(N)=O)CSCC(=O)N[C@@H](Cc2ccccc2)C(=O)N[C@@H](Cc2ccc(O)cc2)C(=O)N[C@@H](CC(=O)O)C1=O [Example 1092] ({CH2CO}-FYD[NHexGly]YLGRK[Ahp(2)]PVSCG-NH2; thioether N-14)	27.1 nM
CCCCCCN1CC(=O)N[C@@H](Cc2ccc(O)cc2)C(=O)N[C@@H](CCCCC)C(=O)NCC(=O)N[C@@H](CCCNC(=N)N)C(=O)N[C@@H](Cc2ccc(O)cc2)C(=O)N[C@@H](CCCCC)C(=O)N2CCC[C@H]2C(=O)N[C@@H](C(C)C)C(=O)N[C@@H](CO)C(=O)N[C@H](C(=O)NCC(N)=O)CSCC(=O)N[C@@H](Cc2ccccc2)C(=O)N[C@@H](Cc2ccc(O)cc2)C(=O)N[C@@H](CC(=O)O)C1=O [Example 1093] ({CH2CO}-FYD[NHexGly]Y[Ahp(2)]GRY[Ahp(2)]PVSCG-NH2; thioether N-14)	40.4 nM
CCCCCCN1CC(=O)N[C@@H](Cc2ccc(O)cc2)C(=O)N[C@@H](CC(C)C)C(=O)NCC(=O)N[C@@H](CCCNC(=N)N)C(=O)N[C@@H](Cc2ccc(O)cc2)C(=O)N[C@@H](CCCCC)C(=O)N2CCC[C@H]2C(=O)N[C@@H](C(C)C)C(=O)N[C@@H](CO)C(=O)N[C@H](C(=O)NCC(N)=O)CSCC(=O)N[C@@H](Cc2ccccc2)C(=O)N[C@@H](Cc2ccc(O)cc2)C(=O)N[C@@H](CC(=O)O)C1=O [Example 1094] ({CH2CO}-FYD[NHexGly]YLGRY[Ahp(2)]PVSCG-NH2; thioether N-14)	34.9 nM
CCCCCCN1CC(=O)N[C@@H](Cc2ccc(O)cc2)C(=O)N[C@@H](CC(C)C)C(=O)NCC(=O)N[C@@H](CCCNC(=N)N)C(=O)N[C@@H](Cc2ccc(O)cc2)C(=O)N[C@@H](CCCCC)C(=O)N2CCC[C@H]2C(=O)N[C@@H](C(C)C)C(=O)N[C@@H](CO)C(=O)N[C@H](C(=O)NCC(=O)O)CSCC(=O)N[C@@H](Cc2ccccc2)C(=O)N[C@@H](Cc2ccc(O)cc2)C(=O)N[C@@H](CC(=O)O)C1=O [Example 1095] ({CH2CO}-FYD[NHexGly]YLGRY[Ahp(2)]PVSCG-OH; thioether N-14)	17.4 nM
CCCCCCN1CC(=O)N[C@@H](Cc2ccc(O)cc2)C(=O)N[C@@H](CC(C)C)C(=O)NCC(=O)N[C@@H](CCCNC(=N)N)C(=O)N[C@@H](Cc2ccc(O)cc2)C(=O)N[C@@H](CCCCC)C(=O)N2CCC[C@H]2C(=O)N[C@@H](C(C)C)C(=O)N[C@@H](CC(=O)O)C(=O)N[C@H](C(=O)NCC(N)=O)CSCC(=O)N[C@@H](Cc2ccccc2)C(=O)N[C@@H](Cc2ccc(O)cc2)C(=O)N[C@@H](CC(=O)O)C1=O [Example 1096] ({CH2CO}-FYD[NHexGly]YLGRY[Ahp(2)]PVDCG-NH2; thioether N-14)	15.5 nM
CCCCCCN1CC(=O)N[C@@H](Cc2ccc(O)cc2)C(=O)N[C@@H](CC(C)C)C(=O)NCC(=O)N[C@@H](CCCNC(=N)N)C(=O)N[C@@H](Cc2ccc(O)cc2)C(=O)N[C@@H](CCCCC)C(=O)N2CCC[C@H]2C(=O)N[C@@H](C(C)C)C(=O)N[C@@H](C(C)C)C(=O)N[C@H](C(=O)NCC(=O)O)CSCC(=O)N[C@@H](Cc2ccccc2)C(=O)N[C@@H](Cc2ccc(O)cc2)C(=O)N[C@@H](CC(=O)O)C1=O [Example 1097] ({CH2CO}-FYD[NHexGly]YLGRY[Ahp(2)]PVVCG-OH; thioether N-14)	18 nM
CCCCCCN1CC(=O)N[C@@H](Cc2ccc(O)cc2)C(=O)N[C@@H](CCCCC)C(=O)N[C@@H](CC(N)=O)C(=O)N[C@@H](CCCNC(=N)N)C(=O)N[C@@H](Cc2c[nH]c3ccccc23)C(=O)N[C@@H](CCCCC)C(=O)N2CCC[C@H]2C(=O)N[C@@H](C(C)C)C(=O)N[C@@H](CO)C(=O)N[C@H](C(=O)NCC(=O)O)CSCC(=O)N[C@@H](Cc2ccccc2)C(=O)N[C@@H](Cc2ccc(O)cc2)C(=O)N[C@@H](CC(=O)O)C1=O [Example 1098] ({CH2CO}-FYD[NHexGly]Y[Ahp(2)]NRW[Ahp(2)]PVSCG-OH; thioether N-14)	14.7 nM
CCCCCCN1CC(=O)N[C@@H](Cc2ccc(O)cc2)C(=O)N[C@@H](CCCC)C(=O)NCC(=O)N[C@@H](CCCNC(=N)N)C(=O)N[C@@H](CC(C)C)C(=O)N[C@@H](CCCCC)C(=O)N2CCC[C@H]2C(=O)N[C@@H](C(C)C)C(=O)N2CCC[C@H]2C(=O)N[C@H](C(=O)NCC(=O)O)CSCC(=O)N[C@@H](Cc2ccccc2)C(=O)N[C@@H](Cc2ccc(O)cc2)C(=O)N[C@@H](CC(=O)O)C1=O [Example 1099] ({CH2CO}-FYD[NHexGly]Y[Nle]GRL[Ahp(2)]PVPCG-OH; thioether N-14)	21.6 nM
CCCCCCN1CC(=O)N[C@@H](Cc2ccc(O)cc2)C(=O)N[C@@H](CCCCC)C(=O)NCC(=O)N[C@@H](CCCNC(=N)N)C(=O)N[C@@H](CC(C)C)C(=O)N[C@@H](CCCCC)C(=O)N2CCC[C@H]2C(=O)N[C@@H](C(C)C)C(=O)N2CCC[C@H]2C(=O)N[C@H](C(=O)NCC(N)=O)CSCC(=O)N[C@@H](Cc2ccccc2)C(=O)N[C@@H](Cc2ccc(O)cc2)C(=O)N[C@@H](CC(=O)O)C1=O [Example 1100] ({CH2CO}-FYD[NHexGly]Y[Ahp(2)]GRL[Ahp(2)]PVPCG-NH2; thioether N-14)	17.6 nM
CCCCCCN1CC(=O)N[C@@H](Cc2ccc(O)cc2)C(=O)N[C@@H](CCC)C(=O)NCC(=O)N[C@@H](CCCNC(=N)N)C(=O)N[C@@H](CC(C)C)C(=O)N[C@@H](CCCCC)C(=O)N2CCC[C@H]2C(=O)N[C@@H](C(C)C)C(=O)N2CCC[C@H]2C(=O)N[C@H](C(=O)NCC(N)=O)CSCC(=O)N[C@@H](Cc2ccccc2)C(=O)N[C@@H](Cc2ccc(O)cc2)C(=O)N[C@@H](CC(=O)O)C1=O [Example 1102] ({CH2CO}-FYD[NHexGly]Y[Nva]GRL[Ahp(2)]PVPCG-NH2; thioether N-14)	25.7 nM
CCCCCCN1CC(=O)N[C@@H](Cc2ccc(O)cc2)C(=O)N[C@@H](C(C)C)C(=O)NCC(=O)N[C@@H](CCCNC(=N)N)C(=O)N[C@@H](CC(C)C)C(=O)N[C@@H](CCCCC)C(=O)N2CCC[C@H]2C(=O)N[C@@H](C(C)C)C(=O)N2CCC[C@H]2C(=O)N[C@H](C(=O)NCC(=O)O)CSCC(=O)N[C@@H](Cc2ccccc2)C(=O)N[C@@H](Cc2ccc(O)cc2)C(=O)N[C@@H](CC(=O)O)C1=O [Example 1109] ({CH2CO}-FYD[NHexGly]YVGRL[Ahp(2)]PVPCG-OH; thioether N-14)	39.1 nM
CCCCCCN1CC(=O)N[C@@H](Cc2ccc(O)cc2)C(=O)N[C@@H](C(C)C)C(=O)NCC(=O)N[C@@H](CCCNC(=N)N)C(=O)N[C@@H](CC(C)C)C(=O)N[C@@H](CCCCC)C(=O)N2CCC[C@H]2C(=O)N[C@@H](C(C)C)C(=O)N[C@@H](CC(=O)O)C(=O)N[C@H](C(=O)N[C@@H](CO)C(=O)N[C@@H](CCCN)C(=O)N[C@@H](CC(N)=O)C(=O)O)CSCC(=O)N[C@@H](Cc2ccc3ccccc3c2)C(=O)N[C@@H](Cc2ccc(O)cc2)C(=O)N[C@@H](CC(=O)O)C1=O [Example 1159] ({CH2CO}-[2Nal]YD[NHexGly]YVGRL[Ahp(2)]PVDCS[Orn]N-OH; thioether N-14)	17.2 nM
CCCCCCN1CC(=O)N[C@@H](Cc2ccc(O)cc2)C(=O)N[C@@H](C(C)C)C(=O)NCC(=O)N[C@@H](CCCNC(=N)N)C(=O)N[C@@H](CC(C)C)C(=O)N[C@@H](CCCCC)C(=O)N2CCC[C@H]2C(=O)N[C@@H](C(C)C)C(=O)N[C@@H](CC(=O)O)C(=O)N[C@H](C(=O)N[C@@H](CO)C(=O)N[C@@H](CCCN)C(=O)N[C@@H](CCC(N)=O)C(=O)O)CSCC(=O)N[C@@H](Cc2ccc3ccccc3c2)C(=O)N[C@@H](Cc2ccc(O)cc2)C(=O)N[C@@H](CC(=O)O)C1=O [Example 1160] ({CH2CO}-[2Nal]YD[NHexGly]YVGRL[Ahp(2)]PVDCS[Orn]Q-OH; thioether N-14)	37.1 nM
CCCCCCN1CC(=O)N[C@@H](Cc2ccc(O)cc2)C(=O)N[C@@H](C(C)C)C(=O)NCC(=O)N[C@@H](CCCNC(=N)N)C(=O)N[C@@H](CC(C)C)C(=O)N[C@@H](CCCCC)C(=O)N2CCC[C@H]2C(=O)N[C@@H](C(C)C)C(=O)N[C@@H](CC(=O)O)C(=O)N[C@H](C(=O)N[C@@H](CO)C(=O)N[C@@H](CN)C(=O)N[C@@H](CC(N)=O)C(=O)O)CSCC(=O)N[C@@H](Cc2ccc3ccccc3c2)C(=O)N[C@@H](Cc2ccc(O)cc2)C(=O)N[C@@H](CC(=O)O)C1=O [Example 1161] ({CH2CO}-[2Nal]YD[NHexGly]YVGRL[Ahp(2)]PVDCS[Dap]N-OH; thioether N-14)	22.7 nM
CCCCCCN1CC(=O)N[C@@H](Cc2ccc(O)cc2)C(=O)N[C@@H](C(C)C)C(=O)NCC(=O)N[C@@H](CCCNC(=N)N)C(=O)N[C@@H](CC(C)C)C(=O)N[C@@H](CCCCC)C(=O)N2CCC[C@H]2C(=O)N[C@@H](C(C)C)C(=O)N[C@@H](CC(=O)O)C(=O)N[C@H](C(=O)N[C@@H](CO)C(=O)N[C@@H](CN)C(=O)N[C@@H](CCC(N)=O)C(=O)O)CSCC(=O)N[C@@H](Cc2ccc3ccccc3c2)C(=O)N[C@@H](Cc2ccc(O)cc2)C(=O)N[C@@H](CC(=O)O)C1=O [Example 1162] ({CH2CO}-[2Nal]YD[NHexGly]YVGRL[Ahp(2)]PVDCS[Dap]Q-OH; thioether N-14)	35.3 nM
CCCCCCN1CC(=O)N[C@@H](Cc2ccc(O)cc2)C(=O)N[C@@H](C(C)C)C(=O)NCC(=O)N[C@@H](CCCNC(=N)N)C(=O)N[C@@H](CC(C)C)C(=O)N[C@@H](CCCCC)C(=O)N2CCC[C@H]2C(=O)N[C@@H](C(C)C)C(=O)N[C@@H](CC(=O)O)C(=O)N[C@H](C(=O)N[C@@H](CO)C(=O)N[C@@H](CCCCN)C(=O)N[C@@H](CC(N)=O)C(=O)O)CSCC(=O)N[C@@H](Cc2ccc3ccccc3c2)C(=O)N[C@@H](Cc2ccc(O)cc2)C(=O)N[C@@H](CC(=O)O)C1=O [Example 1163] ({CH2CO}-[2Nal]YD[NHexGly]YVGRL[Ahp(2)]PVDCSKN-OH; thioether N-14)	22.6 nM
